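In this assay, cells in 96-well plates receive the compound at five concentrations for 48 hours. Endpoints are linearly interpolated between the surrounding concentrations. At the GI50, growth is halved. TGI: total growth inhibition.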
Experiments:
Experiment in all cases: NCI-60 cell line screen, 48 h; in the data active means GI50 below about 0.43 µM; inactive means the rest
RXF 393 renal = test system: RXF 393 renal
CCRF-CEM leukemia = test system: CCRF-CEM leukemia
BT-549 breast = test system: BT-549 breast
HT29 colon = test system: HT29 colon
HOP-92 NSCLC = test system: HOP-92 NSCLC
SF-539 CNS = test system: SF-539 CNS
MDA-MB-231 breast = test system: MDA-MB-231 breast
MCF7 breast = test system: MCF7 breast
OVCAR-3 ovarian = test system: OVCAR-3 ovarian
OVCAR-8 ovarian = test system: OVCAR-8 ovarian
SNB-75 CNS = test system: SNB-75 CNS
IGROV1 ovarian = test system: IGROV1 ovarian
HCT-15 colon = test system: HCT-15 colon
UO-31 renal = test system: UO-31 renal
CAKI-1 renal = test system: CAKI-1 renal
OVCAR-5 ovarian = test system: OVCAR-5 ovarian
SN12C renal = test system: SN12C renal
A549 NSCLC = test system: A549 NSCLC
M14 melanoma = test system: M14 melanoma
OVCAR-4 ovarian = test system: OVCAR-4 ovarian
HCC-2998 colon = test system: HCC-2998 colon
786-0 renal = test system: 786-0 renal
HCT-116 colon = test system: HCT-116 colon
UACC-62 melanoma = test system: UACC-62 melanoma
HOP-62 NSCLC = test system: HOP-62 NSCLC
A498 renal = test system: A498 renal
SK-OV-3 ovarian = test system: SK-OV-3 ovarian
SF-268 CNS = test system: SF-268 CNS
SK-MEL-5 melanoma = test system: SK-MEL-5 melanoma
U251 CNS = test system: U251 CNS
SK-MEL-28 melanoma = test system: SK-MEL-28 melanoma
MOLT-4 leukemia = test system: MOLT-4 leukemia
RPMI-8226 leukemia = test system: RPMI-8226 leukemia
HS 578T breast = test system: HS 578T breast
K-562 leukemia = test system: K-562 leukemia
KM12 colon = test system: KM12 colon
PC-3 prostate = test system: PC-3 prostate
NCI-H23 lung = test system: NCI-H23 lung
T-47D breast = test system: T-47D breast
NCI-H522 lung = test system: NCI-H522 lung
TK-10 renal = test system: TK-10 renal
MALME-3M melanoma = test system: MALME-3M melanoma
LOX IMVI melanoma = test system: LOX IMVI melanoma
SW-620 colon = test system: SW-620 colon
SNB-19 CNS = test system: SNB-19 CNS
EKVX NSCLC = test system: EKVX NSCLC
COLO 205 colon = test system: COLO 205 colon
DU-145 prostate = test system: DU-145 prostate
SF-295 CNS = test system: SF-295 CNS
UACC-257 melanoma = test system: UACC-257 melanoma
NCI-H226 lung = test system: NCI-H226 lung
NCI-H460 lung = test system: NCI-H460 lung
NCI/ADR-RES ovarian = test system: NCI/ADR-RES ovarian
SK-MEL-2 melanoma = test system: SK-MEL-2 melanoma

COc1ccc(/C(COc2ccc3c(c2)oc(=O)c2cc(OC)ccc23)=N/O)cc1
52.2 µM: TGI (A498 renal)
19.1 µM: TGI (NCI-H522 lung)
74.8 µM: TGI (HT29 colon)
9.76 µM: TGI (NCI/ADR-RES ovarian)
51.3 µM: TGI (SF-539 CNS)
9.98 µM: TGI (SNB-75 CNS)
inactive: GI50 (RXF 393 renal) 26.8 µM | GI50 (CCRF-CEM leukemia) 8.05 µM | GI50 (BT-549 breast) 15 µM | GI50 (HT29 colon) 3.72 µM | GI50 (HOP-92 NSCLC) 80.9 µM | GI50 (SF-539 CNS) 8.33 µM | GI50 (MDA-MB-231 breast) 10.8 µM | GI50 (MCF7 breast) 4.16 µM | GI50 (OVCAR-3 ovarian) 3.68 µM | GI50 (OVCAR-8 ovarian) 11.4 µM | GI50 (SNB-75 CNS) 2.73 µM | GI50 (IGROV1 ovarian) 4.87 µM | GI50 (HCT-15 colon) 5.16 µM | GI50 (UO-31 renal) 17.1 µM | GI50 (CAKI-1 renal) 6.4 µM | GI50 (OVCAR-5 ovarian) > 100 µM | GI50 (SN12C renal) 13.6 µM | GI50 (A549 NSCLC) 7.41 µM | GI50 (M14 melanoma) 4.29 µM | GI50 (OVCAR-4 ovarian) 24.7 µM | GI50 (HCC-2998 colon) 7.64 µM | GI50 (786-0 renal) 14.8 µM | GI50 (HCT-116 colon) 4.18 µM | GI50 (UACC-62 melanoma) 3.94 µM | GI50 (HOP-62 NSCLC) 8.86 µM | GI50 (A498 renal) 3.22 µM | GI50 (SK-OV-3 ovarian) 37.4 µM | GI50 (SF-268 CNS) 8.33 µM | GI50 (SK-MEL-5 melanoma) 4.27 µM | GI50 (U251 CNS) 5.08 µM | GI50 (SK-MEL-28 melanoma) 4.86 µM | GI50 (MOLT-4 leukemia) 5.86 µM | GI50 (RPMI-8226 leukemia) 5.44 µM | GI50 (HS 578T breast) 10.6 µM | GI50 (K-562 leukemia) 5.36 µM | GI50 (KM12 colon) 4.67 µM | GI50 (PC-3 prostate) 7.28 µM | GI50 (NCI-H23 lung) 20.5 µM | GI50 (T-47D breast) 6.9 µM | GI50 (NCI-H522 lung) 3.55 µM | GI50 (TK-10 renal) 8.14 µM | GI50 (MALME-3M melanoma) 65.7 µM | GI50 (LOX IMVI melanoma) 8.12 µM | GI50 (SW-620 colon) 4.34 µM | GI50 (SNB-19 CNS) 4.34 µM | GI50 (EKVX NSCLC) 23.7 µM | GI50 (COLO 205 colon) 3.75 µM | GI50 (DU-145 prostate) 29.2 µM | GI50 (SF-295 CNS) 6.2 µM | GI50 (UACC-257 melanoma) 24.8 µM | GI50 (NCI-H226 lung) 41.7 µM | GI50 (NCI-H460 lung) 3.97 µM | GI50 (NCI/ADR-RES ovarian) 2.96 µM | GI50 (SK-MEL-2 melanoma) 15.2 µM
> 100 µM: TGI (RXF 393 renal) | TGI (CCRF-CEM leukemia) | TGI (BT-549 breast) | TGI (HOP-92 NSCLC) | TGI (MDA-MB-231 breast) | TGI (MCF7 breast) | TGI (OVCAR-3 ovarian) | TGI (OVCAR-8 ovarian) | TGI (IGROV1 ovarian) | TGI (HCT-15 colon) | TGI (UO-31 renal) | TGI (CAKI-1 renal) | TGI (OVCAR-5 ovarian) | TGI (SN12C renal) | TGI (A549 NSCLC) | TGI (M14 melanoma) | TGI (OVCAR-4 ovarian) | TGI (HCC-2998 colon) | TGI (786-0 renal) | TGI (HCT-116 colon) | TGI (UACC-62 melanoma) | TGI (HOP-62 NSCLC) | TGI (SK-OV-3 ovarian) | TGI (SF-268 CNS) | TGI (U251 CNS) | TGI (SK-MEL-28 melanoma) | TGI (MOLT-4 leukemia) | TGI (RPMI-8226 leukemia) | TGI (HS 578T breast) | TGI (K-562 leukemia) | TGI (KM12 colon) | TGI (PC-3 prostate) | TGI (NCI-H23 lung) | TGI (T-47D breast) | TGI (TK-10 renal) | TGI (MALME-3M melanoma) | TGI (SW-620 colon) | TGI (SNB-19 CNS) | TGI (EKVX NSCLC) | TGI (COLO 205 colon) | TGI (DU-145 prostate) | TGI (SF-295 CNS) | TGI (UACC-257 melanoma) | TGI (NCI-H226 lung) | TGI (NCI-H460 lung) | TGI (SK-MEL-2 melanoma)
67.2 µM: TGI (LOX IMVI melanoma)
69.4 µM: TGI (SK-MEL-5 melanoma)

From PubChem BioAssay (NCI)
